Measured values: patent publication US20020128176A1, “Treatment of erectile dysfunctions with C-Type natriuretic polypeptide (CNP) as a monotherapy or in combination with phosphodiesterase inhibitors” (priority 1999, published 2002)
Where no end group is shown, it is not given here.

Key:
[1] = Tests made with male patients: induction of erection; format: in vivo, human; details: for erection / time for which the erection was maintained: male patients
[2] = system: smooth muscle of the human corpus cavernosum penis; test: Functional organ bath studies: relaxation of norepinephrine-precontracted strip preparations of human cavernous muscles
Protocol: Functional organ bath studies:
Strip preparations of human cavernous muscles were fixed in the bath chambers of an organ bath plant (Isolated Organ Apparatus IOA 5306, Föhr Medical Instruments GmbH, Seeheim, Germany) filled with a modified Krebs-Ringer solution (NaCl 120 mM, NaHCO3 25.6 mM, KCl 4.7 mM, CaCl2 2.5 mM, NaH2PO4 1.2 mM, MgCl2 1.2 mM, glucose 22 mM, 2Na^+ (Ca^2+) EDTA 0.1 mM, pH 7.2-7.4). The temperature of the bath solution was controlled to 37° C., and a mixture of […] O2 and 5% CO2 was continuously sparkled through the solution. The application of a passive bias tension of 5 mN (0.5 g) was followed by an equilibration phase of 60 min. Subsequently, the muscle strips were stimulated with 6 μM norepinephrine (NOR). After a stable contraction plateau was reached, the peptides human atrial natriuretic peptide/cardiodilatin (ANP/CDD99-126) (for a survey, see Forssmann et al., 1998) and human C-type natriuretic peptide (CNP) (Ogawa et al., 1992), which are chemically synthesized in our laboratory, were added with cumulative dosage (0.01 to 1000 nM). Changes in the mechanical tension of the muscles were recorded with an analog-digital measured data acquisition system (MacLab®, AD Instruments, Castle Hill, Australia).

CCCc1nn(C)c2c(=O)[nH]c(-c3cc(S(=O)(=O)N4CCN(C)CC4)ccc3OCC)nc12 [Sildenafil, reference compound]
necessary dose for the induction of an erection ([1]; combined, simultaneous application of CNP): significantly decreased | side-effects (flickering in the eyes or headaches) ([1]; some subjects, combined application with CNP versus exclusive Sildenafil treatment): reduced, in part to complete disappearance

C-type natriuretic polypeptide (GLSKGCFGLKLDRIGSMSGLGC) [CNP, ligand of guanylate cyclase B]
erection ([1]; intracavernous application): immediate erection | time for which the erection was maintained ([1]; intracavernous application): about one | erection ([1]; intravenous application): immediate erection | time for which the erection was maintained ([1]; intravenous application): about one | concentration from which a significant relaxant effect is seen ([2]; strips precontracted with 6 μM norepinephrine, cumulative dosage 0.01 to 1000 nM): 1 nM

human atrial natriuretic peptide/cardiodilatin (SLRRSSCFGGRMDRIGAQSGLGCNSFRY; ends and bridges not checked; cysteine pairing not given here) [ANP/CDD99-126, Chemically synthesized peptide, the ligand of guanylate cyclase A, reference compound]
relaxation of precontracted smooth muscle (in words) ([2]; at corresponding concentrations (1 nM to 1 μM), precontracted with 6 μM norepinephrine): no significant relaxation
